According to ChEMBL document CHEMBL3991601, “The target landscape of clinical kinase drugs” (Science, 2017):
The source made the active and inactive calls. Cut-off read from the data, not from the text of the source, for most assays here: actives have a measured Kd and inactives only a lower limit.

How the values were obtained:
[1] = target: Cyclin-dependent kinase 13 (Homo sapiens, UniProt Q14004)
[2] = target: Cyclin-dependent kinase 6 (Homo sapiens, UniProt Q00534)
[3] = target: Casein kinase I isoform epsilon (Homo sapiens, UniProt P49674)
Chain of Casein kinase I isoform epsilon (P49674 whole entry, canonical isoform): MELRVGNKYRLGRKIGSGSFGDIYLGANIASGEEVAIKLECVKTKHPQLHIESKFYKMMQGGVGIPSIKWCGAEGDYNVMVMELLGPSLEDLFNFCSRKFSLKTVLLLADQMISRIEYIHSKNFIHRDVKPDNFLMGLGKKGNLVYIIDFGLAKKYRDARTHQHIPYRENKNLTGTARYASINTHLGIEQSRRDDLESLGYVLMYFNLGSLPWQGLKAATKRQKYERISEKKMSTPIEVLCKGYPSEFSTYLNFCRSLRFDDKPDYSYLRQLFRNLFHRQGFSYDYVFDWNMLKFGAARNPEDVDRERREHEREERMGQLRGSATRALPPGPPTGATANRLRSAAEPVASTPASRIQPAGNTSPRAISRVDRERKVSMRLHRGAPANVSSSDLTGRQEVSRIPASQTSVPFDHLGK

[4] = target: ATP-dependent RNA helicase DDX3X (Homo sapiens, UniProt O00571)
Chain of ATP-dependent RNA helicase DDX3X (O00571 whole entry): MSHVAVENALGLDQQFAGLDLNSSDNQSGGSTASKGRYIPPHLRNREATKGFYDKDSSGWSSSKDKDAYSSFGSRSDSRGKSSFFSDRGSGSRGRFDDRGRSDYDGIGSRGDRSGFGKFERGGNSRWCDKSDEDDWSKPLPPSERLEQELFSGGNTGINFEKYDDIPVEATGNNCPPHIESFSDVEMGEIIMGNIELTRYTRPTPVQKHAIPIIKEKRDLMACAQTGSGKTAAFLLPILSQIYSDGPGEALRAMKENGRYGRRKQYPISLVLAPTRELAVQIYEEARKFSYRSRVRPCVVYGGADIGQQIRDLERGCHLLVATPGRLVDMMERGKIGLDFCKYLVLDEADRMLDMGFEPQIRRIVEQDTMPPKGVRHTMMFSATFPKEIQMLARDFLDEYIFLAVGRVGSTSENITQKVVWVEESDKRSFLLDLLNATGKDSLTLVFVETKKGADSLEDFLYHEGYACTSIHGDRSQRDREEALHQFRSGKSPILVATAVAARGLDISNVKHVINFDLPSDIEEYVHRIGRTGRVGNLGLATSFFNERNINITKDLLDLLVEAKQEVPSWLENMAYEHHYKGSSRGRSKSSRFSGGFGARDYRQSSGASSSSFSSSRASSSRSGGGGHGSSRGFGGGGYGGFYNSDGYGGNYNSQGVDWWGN

[5] = target: T1, Mitogen-activated protein kinase kinase kinase 5 (Homo sapiens, UniProt Q99683)
T1 sequence (Q99683 whole entry): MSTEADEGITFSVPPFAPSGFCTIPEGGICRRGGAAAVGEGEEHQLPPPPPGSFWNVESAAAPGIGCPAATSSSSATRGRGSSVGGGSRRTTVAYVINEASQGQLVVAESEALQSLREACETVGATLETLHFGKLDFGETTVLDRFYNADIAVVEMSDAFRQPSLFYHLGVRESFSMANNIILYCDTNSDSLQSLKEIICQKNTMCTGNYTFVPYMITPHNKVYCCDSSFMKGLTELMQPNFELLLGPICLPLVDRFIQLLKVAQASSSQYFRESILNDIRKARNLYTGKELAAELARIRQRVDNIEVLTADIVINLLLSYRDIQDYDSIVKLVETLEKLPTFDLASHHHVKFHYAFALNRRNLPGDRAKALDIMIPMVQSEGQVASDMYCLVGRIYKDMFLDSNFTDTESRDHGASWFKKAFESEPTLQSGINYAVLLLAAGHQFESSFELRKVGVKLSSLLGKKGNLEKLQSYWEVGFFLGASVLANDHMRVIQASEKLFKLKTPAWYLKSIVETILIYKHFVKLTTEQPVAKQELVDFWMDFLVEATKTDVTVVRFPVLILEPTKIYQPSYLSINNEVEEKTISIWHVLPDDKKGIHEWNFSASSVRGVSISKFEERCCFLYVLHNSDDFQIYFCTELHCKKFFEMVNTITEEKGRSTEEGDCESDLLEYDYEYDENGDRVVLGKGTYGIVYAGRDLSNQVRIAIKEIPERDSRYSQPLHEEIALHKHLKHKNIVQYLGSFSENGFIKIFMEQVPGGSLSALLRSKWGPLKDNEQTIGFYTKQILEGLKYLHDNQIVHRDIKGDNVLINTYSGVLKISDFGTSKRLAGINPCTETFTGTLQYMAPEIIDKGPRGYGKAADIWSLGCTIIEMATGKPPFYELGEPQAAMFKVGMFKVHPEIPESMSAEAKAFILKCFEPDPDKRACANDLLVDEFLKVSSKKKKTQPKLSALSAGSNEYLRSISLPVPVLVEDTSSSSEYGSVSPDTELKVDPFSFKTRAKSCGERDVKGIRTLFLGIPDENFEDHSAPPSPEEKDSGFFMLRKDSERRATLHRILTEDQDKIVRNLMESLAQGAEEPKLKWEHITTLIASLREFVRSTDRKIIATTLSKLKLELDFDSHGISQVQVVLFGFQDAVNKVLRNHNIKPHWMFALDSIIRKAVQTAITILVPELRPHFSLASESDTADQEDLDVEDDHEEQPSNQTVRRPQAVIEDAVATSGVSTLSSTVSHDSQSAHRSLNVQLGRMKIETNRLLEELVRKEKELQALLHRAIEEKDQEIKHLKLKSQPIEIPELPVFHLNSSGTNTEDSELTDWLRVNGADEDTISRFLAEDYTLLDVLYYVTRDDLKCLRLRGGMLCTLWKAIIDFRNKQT

[6] = target: T2, Ribosyldihydronicotinamide dehydrogenase [quinone] (Homo sapiens, UniProt P16083)
T2 sequence (P16083 whole entry): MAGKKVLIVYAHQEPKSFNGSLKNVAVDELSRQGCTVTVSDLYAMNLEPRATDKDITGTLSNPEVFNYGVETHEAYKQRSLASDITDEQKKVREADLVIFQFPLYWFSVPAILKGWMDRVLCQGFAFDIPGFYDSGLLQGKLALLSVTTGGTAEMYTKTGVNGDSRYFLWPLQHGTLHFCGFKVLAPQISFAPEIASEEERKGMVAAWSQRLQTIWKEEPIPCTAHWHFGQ

[7] = target: Protein kinase C delta type (Homo sapiens, UniProt Q05655)
Chain of Protein kinase C delta type (Q05655 whole entry): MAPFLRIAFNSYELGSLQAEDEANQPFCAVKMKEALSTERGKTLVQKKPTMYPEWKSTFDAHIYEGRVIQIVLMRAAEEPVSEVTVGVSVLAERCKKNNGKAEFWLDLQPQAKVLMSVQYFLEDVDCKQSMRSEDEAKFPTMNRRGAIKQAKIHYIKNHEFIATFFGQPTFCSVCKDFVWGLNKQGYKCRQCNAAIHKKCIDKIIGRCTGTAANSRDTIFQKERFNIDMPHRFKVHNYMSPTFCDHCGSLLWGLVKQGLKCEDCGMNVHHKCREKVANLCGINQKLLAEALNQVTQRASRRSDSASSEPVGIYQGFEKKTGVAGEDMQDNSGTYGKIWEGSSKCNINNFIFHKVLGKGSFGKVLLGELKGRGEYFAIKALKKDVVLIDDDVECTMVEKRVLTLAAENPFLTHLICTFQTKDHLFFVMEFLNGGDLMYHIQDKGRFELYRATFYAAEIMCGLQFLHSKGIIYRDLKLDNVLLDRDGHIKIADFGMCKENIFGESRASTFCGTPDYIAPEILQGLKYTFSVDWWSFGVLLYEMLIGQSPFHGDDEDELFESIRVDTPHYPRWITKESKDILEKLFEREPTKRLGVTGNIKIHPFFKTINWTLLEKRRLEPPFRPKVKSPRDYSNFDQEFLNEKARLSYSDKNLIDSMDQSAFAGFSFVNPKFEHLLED

[8] = target: Protein-tyrosine kinase 6 (Homo sapiens, UniProt Q13882)
Chain of Protein-tyrosine kinase 6 (Q13882 whole entry): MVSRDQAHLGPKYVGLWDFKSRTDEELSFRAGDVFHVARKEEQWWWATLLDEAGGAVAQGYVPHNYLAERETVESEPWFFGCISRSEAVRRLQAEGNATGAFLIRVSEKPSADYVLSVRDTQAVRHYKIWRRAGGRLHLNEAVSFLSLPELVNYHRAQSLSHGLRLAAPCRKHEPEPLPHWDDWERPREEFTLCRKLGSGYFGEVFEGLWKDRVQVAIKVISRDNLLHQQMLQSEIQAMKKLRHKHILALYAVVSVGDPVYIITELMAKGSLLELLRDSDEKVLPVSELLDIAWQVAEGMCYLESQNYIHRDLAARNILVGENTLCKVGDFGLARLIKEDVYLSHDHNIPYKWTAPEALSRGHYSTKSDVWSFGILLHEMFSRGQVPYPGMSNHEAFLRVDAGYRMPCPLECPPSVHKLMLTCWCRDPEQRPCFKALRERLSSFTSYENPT

[9] = target: T3, Serine/threonine-protein kinase TAO1 (Homo sapiens, UniProt Q7L7X3)
T3 sequence (Q7L7X3 whole entry): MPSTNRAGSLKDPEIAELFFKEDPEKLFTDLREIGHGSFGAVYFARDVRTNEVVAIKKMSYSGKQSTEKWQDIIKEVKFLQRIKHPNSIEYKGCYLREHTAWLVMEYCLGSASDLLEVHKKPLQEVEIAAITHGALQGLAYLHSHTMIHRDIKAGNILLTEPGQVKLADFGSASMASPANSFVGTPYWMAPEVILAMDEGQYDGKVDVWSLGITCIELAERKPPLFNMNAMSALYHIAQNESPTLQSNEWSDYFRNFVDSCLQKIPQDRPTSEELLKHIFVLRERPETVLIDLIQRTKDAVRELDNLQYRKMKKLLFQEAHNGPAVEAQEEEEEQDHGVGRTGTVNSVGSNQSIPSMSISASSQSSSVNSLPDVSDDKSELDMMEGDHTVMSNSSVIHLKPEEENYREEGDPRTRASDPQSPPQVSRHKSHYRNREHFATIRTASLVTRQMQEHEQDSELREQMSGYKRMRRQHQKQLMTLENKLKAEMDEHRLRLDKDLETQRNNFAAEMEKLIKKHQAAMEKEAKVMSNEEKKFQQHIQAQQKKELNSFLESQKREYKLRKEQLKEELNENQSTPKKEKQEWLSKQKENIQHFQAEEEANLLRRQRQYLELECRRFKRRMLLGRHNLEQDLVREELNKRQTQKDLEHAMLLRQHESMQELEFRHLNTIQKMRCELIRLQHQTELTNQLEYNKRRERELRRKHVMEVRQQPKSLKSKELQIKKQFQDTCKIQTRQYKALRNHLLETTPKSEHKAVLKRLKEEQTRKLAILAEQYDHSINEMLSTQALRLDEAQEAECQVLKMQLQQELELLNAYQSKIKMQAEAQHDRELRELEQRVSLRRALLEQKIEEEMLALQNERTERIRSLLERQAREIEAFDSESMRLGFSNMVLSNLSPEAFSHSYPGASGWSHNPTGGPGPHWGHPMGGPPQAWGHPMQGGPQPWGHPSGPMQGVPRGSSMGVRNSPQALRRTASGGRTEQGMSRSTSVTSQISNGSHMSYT
Note: in the data inactive means no Kd found up to 30 µM.

Chain of Cyclin-dependent kinase 6 (Q00534 whole entry, canonical isoform): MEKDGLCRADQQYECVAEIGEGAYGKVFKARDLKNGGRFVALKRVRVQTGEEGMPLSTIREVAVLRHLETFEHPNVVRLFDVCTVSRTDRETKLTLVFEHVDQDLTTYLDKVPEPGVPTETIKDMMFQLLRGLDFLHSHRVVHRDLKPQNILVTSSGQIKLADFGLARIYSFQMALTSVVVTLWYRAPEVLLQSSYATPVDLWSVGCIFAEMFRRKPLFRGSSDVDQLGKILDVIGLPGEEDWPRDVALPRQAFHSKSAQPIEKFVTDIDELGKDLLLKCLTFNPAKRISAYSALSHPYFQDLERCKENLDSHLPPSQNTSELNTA
Chain of Cyclin-dependent kinase 13 (Q14004 whole entry): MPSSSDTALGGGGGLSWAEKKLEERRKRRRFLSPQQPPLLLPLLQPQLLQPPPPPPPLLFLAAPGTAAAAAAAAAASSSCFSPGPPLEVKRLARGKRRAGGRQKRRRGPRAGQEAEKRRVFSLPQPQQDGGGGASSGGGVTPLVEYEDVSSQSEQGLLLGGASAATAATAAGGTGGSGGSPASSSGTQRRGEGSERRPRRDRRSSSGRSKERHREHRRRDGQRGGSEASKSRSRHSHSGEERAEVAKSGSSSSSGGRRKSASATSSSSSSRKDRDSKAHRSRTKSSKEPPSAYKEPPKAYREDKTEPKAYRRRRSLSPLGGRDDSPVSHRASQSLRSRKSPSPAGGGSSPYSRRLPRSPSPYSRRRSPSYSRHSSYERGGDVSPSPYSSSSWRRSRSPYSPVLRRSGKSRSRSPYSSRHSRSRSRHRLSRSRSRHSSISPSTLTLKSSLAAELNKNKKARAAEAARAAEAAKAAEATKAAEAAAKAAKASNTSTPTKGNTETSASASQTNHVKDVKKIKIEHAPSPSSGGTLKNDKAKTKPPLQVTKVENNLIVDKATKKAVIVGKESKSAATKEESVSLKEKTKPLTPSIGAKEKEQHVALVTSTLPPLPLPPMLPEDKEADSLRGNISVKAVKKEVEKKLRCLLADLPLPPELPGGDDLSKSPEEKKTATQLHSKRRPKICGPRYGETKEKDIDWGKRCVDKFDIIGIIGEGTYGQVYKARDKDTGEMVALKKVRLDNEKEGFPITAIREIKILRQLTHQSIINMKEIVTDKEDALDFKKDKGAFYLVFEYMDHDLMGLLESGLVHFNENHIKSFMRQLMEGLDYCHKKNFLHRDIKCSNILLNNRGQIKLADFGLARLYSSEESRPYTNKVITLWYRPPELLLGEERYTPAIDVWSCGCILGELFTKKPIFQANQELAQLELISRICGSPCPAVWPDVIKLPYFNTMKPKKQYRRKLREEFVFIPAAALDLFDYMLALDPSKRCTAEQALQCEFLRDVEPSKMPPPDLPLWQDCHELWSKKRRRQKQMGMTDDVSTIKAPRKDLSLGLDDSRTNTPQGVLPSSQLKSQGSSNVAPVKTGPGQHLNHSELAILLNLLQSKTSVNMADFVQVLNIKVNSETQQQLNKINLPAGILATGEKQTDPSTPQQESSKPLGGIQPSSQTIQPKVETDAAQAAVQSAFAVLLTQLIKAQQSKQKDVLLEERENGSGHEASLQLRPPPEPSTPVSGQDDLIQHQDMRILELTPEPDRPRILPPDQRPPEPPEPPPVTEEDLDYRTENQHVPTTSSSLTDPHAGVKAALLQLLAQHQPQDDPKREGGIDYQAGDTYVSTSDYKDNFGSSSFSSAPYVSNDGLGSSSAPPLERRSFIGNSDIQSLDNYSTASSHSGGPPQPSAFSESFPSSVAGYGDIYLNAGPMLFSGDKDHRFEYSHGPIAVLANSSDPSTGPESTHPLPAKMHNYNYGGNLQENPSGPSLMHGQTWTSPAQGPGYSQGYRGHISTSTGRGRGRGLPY

Kd [1]	Kd [2]	Kd [3]	Kd [4]	Kd [5]	Kd [6]	Kd [7]	Kd [8]	Kd [9]	Compound
> 30 µM (inactive)	> 30 µM (inactive)	> 30 µM (inactive)	> 30 µM (inactive)	> 30 µM (inactive)	> 30 µM (inactive)	> 30 µM (inactive)	> 30 µM (inactive)	> 30 µM (inactive)	COc1ccc2c(OCc3nnc4ccc(-c5ccccc5)nn34)ccnc2c1 [AMG-208]
> 30 µM (inactive)	> 30 µM (inactive)	> 30 µM (inactive)	> 30 µM (inactive)	> 30 µM (inactive)	> 30 µM (inactive)	> 30 µM (inactive)	> 30 µM (inactive)	> 30 µM (inactive)	CCOc1ccn(-c2ccc(F)cc2)c(=O)c1C(=O)Nc1ccc(Oc2ccnc(N)c2Cl)c(F)c1 [BMS-777607]
> 30 µM (inactive)	> 30 µM (inactive)	> 30 µM (inactive)	> 30 µM (inactive)	> 30 µM (inactive)	> 30 µM (inactive)	> 30 µM (inactive)	1.76 µM (active)	> 30 µM (inactive)	COc1cc2nccc(Oc3ccc(NC(=O)C4(C(=O)Nc5ccc(F)cc5)CC4)cc3)c2cc1OC [CABOZANTINIB]
> 30 µM (inactive)	> 30 µM (inactive)	0.285 µM (active)	> 30 µM (inactive)	> 30 µM (inactive)	1.41 µM (active)	> 30 µM (inactive)	> 30 µM (inactive)	> 30 µM (inactive)	c1cc(OCCN2CCCCC2)cc(-c2n[nH]c3ccc(-c4nc[nH]n4)cc23)c1 [CC-401]

Further lines, the molecule ahead of its results:

Compound	Kd [1]	Kd [2]	Kd [3]	Kd [4]	Kd [5]	Kd [6]	Kd [7]	Kd [8]	Kd [9]
CCc1cc2c(cc1N1CCC(N3CCOCC3)CC1)C(C)(C)c1[nH]c3cc(C#N)ccc3c1C2=O [ALECTINIB]	> 30 µM (inactive)	> 30 µM (inactive)	> 30 µM (inactive)	> 30 µM (inactive)	> 30 µM (inactive)	> 30 µM (inactive)	> 30 µM (inactive)	> 30 µM (inactive)	> 30 µM (inactive)
S=C(NCc1ccc2c(c1)OCO2)N1CCN(c2ncnc3c2oc2ccccc23)CC1 [AMUVATINIB]	> 30 µM (inactive)	> 30 µM (inactive)	> 30 µM (inactive)	> 30 µM (inactive)	> 30 µM (inactive)	> 30 µM (inactive)	> 30 µM (inactive)	> 30 µM (inactive)	> 30 µM (inactive)
NC[C@@](O)(c1ccc(Cl)cc1)c1ccc(-c2cn[nH]c2)cc1 [AT-13148]	> 30 µM (inactive)	> 30 µM (inactive)	> 30 µM (inactive)	> 30 µM (inactive)	> 30 µM (inactive)	> 30 µM (inactive)	0.044 µM (active)	> 30 µM (inactive)	> 30 µM (inactive)
Cc1cc(Nc2nc(N[C@@H](C)c3ncc(F)cn3)ncc2Cl)n[nH]1 [AZD-1480]	> 30 µM (inactive)	> 30 µM (inactive)	> 30 µM (inactive)	> 30 µM (inactive)	> 30 µM (inactive)	> 30 µM (inactive)	> 30 µM (inactive)	> 30 µM (inactive)	> 30 µM (inactive)
COc1ccc(-c2ccc3ncc4c(c3c2)n(-c2ccc(N3CCNCC3)c(C(F)(F)F)c2)c(=O)n4C)cn1 [BGT-226 FREE BASE]	> 30 µM (inactive)	> 30 µM (inactive)	> 30 µM (inactive)	> 30 µM (inactive)	> 30 µM (inactive)	> 30 µM (inactive)	> 30 µM (inactive)	> 30 µM (inactive)	> 30 µM (inactive)
COc1cccc(Nc2ncnn3ccc(CN4CC[C@@H](N)[C@H](O)C4)c23)c1 [BMS-690514]	> 30 µM (inactive)	> 30 µM (inactive)	3.64 µM (active)	> 30 µM (inactive)	> 30 µM (inactive)	> 30 µM (inactive)	1.74 µM (active)	> 30 µM (inactive)	> 30 µM (inactive)
